For the test, the target named is T1, HMG-CoA reductase (Homo sapiens, UniProt P04035).
T1 construct: endogenous in cells; host or cells: HepG2 (Korea Cell Line Bank)
T1 sequence (P04035 1-888): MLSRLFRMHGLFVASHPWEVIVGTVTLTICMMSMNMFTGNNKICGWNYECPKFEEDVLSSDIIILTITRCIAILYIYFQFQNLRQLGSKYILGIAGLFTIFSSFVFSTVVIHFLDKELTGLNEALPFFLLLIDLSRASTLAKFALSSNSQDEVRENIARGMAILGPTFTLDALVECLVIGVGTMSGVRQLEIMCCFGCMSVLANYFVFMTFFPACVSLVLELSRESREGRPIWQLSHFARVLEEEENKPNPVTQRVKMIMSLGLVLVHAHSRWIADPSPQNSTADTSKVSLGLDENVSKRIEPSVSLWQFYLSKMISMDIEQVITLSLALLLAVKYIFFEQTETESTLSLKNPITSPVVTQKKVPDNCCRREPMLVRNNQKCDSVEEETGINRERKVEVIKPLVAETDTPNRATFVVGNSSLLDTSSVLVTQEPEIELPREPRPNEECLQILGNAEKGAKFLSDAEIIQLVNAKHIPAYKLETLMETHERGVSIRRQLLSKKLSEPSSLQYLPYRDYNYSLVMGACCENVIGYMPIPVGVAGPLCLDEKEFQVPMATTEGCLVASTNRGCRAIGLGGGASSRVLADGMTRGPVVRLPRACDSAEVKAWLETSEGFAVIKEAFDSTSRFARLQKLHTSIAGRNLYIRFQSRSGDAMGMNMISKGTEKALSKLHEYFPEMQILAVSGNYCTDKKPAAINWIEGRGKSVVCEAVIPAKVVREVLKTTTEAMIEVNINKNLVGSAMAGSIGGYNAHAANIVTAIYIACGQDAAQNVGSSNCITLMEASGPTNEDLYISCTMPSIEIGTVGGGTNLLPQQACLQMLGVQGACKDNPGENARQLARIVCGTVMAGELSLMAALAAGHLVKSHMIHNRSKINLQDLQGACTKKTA
Nature of the test: HMG-CoA reductase (HMGCR) degradation in HepG2 cells by western blotting. Type of test: cell-based. The settings on record: treated for 18 hours, ratio of HMG-CoA reductase to GAPDH, read-out: DC50. In a few lines:
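Western blot read-out: HMGCR protein probed (1:500, 16 hours at 4° C) alongside GAPDH loading control on 15 μg BCA-normalised RIPA lysates. Lysates came from HepG2 cells (P105–P110) exposed for 18 hours to a 10-point, three-fold series starting at 3 μM.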
(A western blot detects proteins with antibodies after separation by electrophoresis.)
`C[C@H]1C=C2C=C[C@H](C)[C@H](CC[C@@H]3C[C@@H](O)CC(=O)O3)[C@H]2[C@@H](OC(=O)NCCCn2cnc(CNc3cccc4c3C(=O)N(C3CCC(=O)NC3=O)C4=O)c2)C1` (stereo partly drawn) [Compound 103, (1S,3R,7S,8S,8aR)-8-(2-((2R,4R)-4-hydroxy-6-oxotetrahydro-2H-pyran-2-yl)ethyl)-3,7-dimethyl-1,2,3,7,8,8a-hexahydronaphthalen-1-yl (3-(4-(((2-(2,6-dioxopiperidin-3-yl)-1,3-dioxoisoindolin-4-yl)amino)methyl)-1H-imidazol-1-yl)propyl)carbamate]: the DC50 was less than 50 nM.
The value for `C[C@H]1C=C2C=C[C@H](C)[C@H](CC[C@@H]3C[C@@H](O[Si](C)(C)C(C)(C)C)CC(=O)O3)[C@H]2[C@@H](OC(=O)NCc2ccc(OCCNc3cccc4c3C(=O)N(C3CCC(=O)NC3=O)C4=O)cc2)C1` (stereo partly drawn) [Compound 104, (1S,3R,7S,8S,8aR)-8-(2-((2R,4R)-4-((tert-butyldimethylsilyl)oxy)-6-oxotetrahydro-2H-pyran-2-yl)ethyl)-3,7-dimethyl-1,2,3,7,8,8a-hexahydronaphthalen-1-yl (4-(2-((2-(2,6-dioxopiperidin-3-yl)-1,3-dioxoisoindolin-4-yl)amino)ethoxy)benzyl)carbamate] was less than 50 nM; that for `C[C@H]1C=C2C=C[C@H](C)[C@H](CC[C@@H]3C[C@@H](O)CC(=O)O3)[C@H]2[C@@H](OC(=O)NCc2ccc(OCCNc3cccc4c3C(=O)N(C3CCC(=O)NC3=O)C4=O)cc2)C1` (stereo partly drawn) [Compound 105, (1S,3R,7S,8S,8aR)-8-(2-((2R,4R)-4-hydroxy-6-oxotetrahydro-2H-pyran-2-yl)ethyl)-3,7-dimethyl-1,2,3,7,8,8a-hexahydronaphthalen-1-yl (4-(2-((2-(2,6-dioxopiperidin-3-yl)-1,3-dioxoisoindolin-4-yl)amino)ethoxy)benzyl)carbamate] was less than 50 nM.
The value for `C[C@H]1C=C2C=C[C@H](C)[C@H](CC[C@@H](O)C[C@@H](O)CC(=O)O)[C@H]2[C@@H](OC(=O)NCCOCCOCCNc2cccc3c2C(=O)N(C2CCC(=O)NC2=O)C3=O)C1` (stereo partly drawn) [Compound 106, (3R,5R)-7-((1S,2S,6R,8S,8aR)-8-(((2-(2-(2-((2-(2,6-dioxopiperidin-3-yl)-1,3-dioxoisoindolin-4-yl)amino)ethoxy)ethoxy)ethyl)carbamoyl)oxy)-2,6-dimethyl-1,2,6,7,8,8a-hexahydronaphthalen-1-yl)-3,5-dihydroxyheptanoic acid] was less than 50 nM.
The value for `C[C@H]1C=C2C=C[C@H](C)[C@H](CC[C@@H](O)C[C@@H](O)CC(=O)O)[C@H]2[C@@H](OC(=O)NCCOCCOCCOCCNc2cccc3c2C(=O)N(C2CCC(=O)NC2=O)C3=O)C1` (stereo partly drawn) [Compound 107, (3R,5R)-7-((1S,2S,6R,8S,8aR)-8-(((2-(2-(2-(2-((2-(2,6-dioxopiperidin-3-yl)-1,3-dioxoisoindolin-4-yl)amino)ethoxy)ethoxy)ethoxy)ethyl)carbamoyl)oxy)-2,6-dimethyl-1,2,6,7,8,8a-hexahydronaphthalen-1-yl)-3,5-dihydroxyheptanoic acid] was less than 50 nM; that for `C[C@H]1C=C2C=C[C@H](C)[C@H](CC[C@@H]3C[C@@H](O[Si](C)(C)C(C)(C)C)CC(=O)O3)[C@H]2[C@@H](OC(=O)NCCOCCOCC#Cc2cccc3c2C(=O)N(C2CCC(=O)NC2=O)C3=O)C1` (stereo partly drawn) [Compound 114, (1S,3R,7S,8S,8aR)-8-(2-((2R,4R)-4-((tert-butyldimethylsilyl)oxy)-6-oxotetrahydro-2H-pyran-2-yl)ethyl)-3,7-dimethyl-1,2,3,7,8,8a-hexahydronaphthalen-1-yl (2-(2-((3-(2-(2,6-dioxopiperidin-3-yl)-1,3-dioxoisoindolin-4-yl)prop-2-yn-1-yl)oxy)ethoxy)ethyl)carbamate] was less than 50 nM; that for `C[C@H]1C=C2C=C[C@H](C)[C@H](CC[C@@H]3C[C@@H](O)CC(=O)O3)[C@H]2[C@@H](OC(=O)NCCOCCOCC#Cc2cccc3c2C(=O)N(C2CCC(=O)NC2=O)C3=O)C1` (stereo partly drawn) [Compound 115, (1S,3R,7S,8S,8aR)-8-(2-((2R,4R)-4-hydroxy-6-oxotetrahydro-2H-pyran-2-yl)ethyl)-3,7-dimethyl-1,2,3,7,8,8a-hexahydronaphthalen-1-yl (2-(2-((3-(2-(2,6-dioxopiperidin-3-yl)-1,3-dioxoisoindolin-4-yl)prop-2-yn-1-yl)oxy)ethoxy)ethyl)carbamate] was less than 50 nM.
On to `C[C@H]1C=C2C=C[C@H](C)[C@H](CC[C@@H]3C[C@@H](O[Si](C)(C)C(C)(C)C)CC(=O)O3)[C@H]2[C@@H](OC(=O)NCCCOCCCCNc2cccc3c2C(=O)N(C2CCC(=O)NC2=O)C3=O)C1` (stereo partly drawn) [Compound 120, (1S,3R,7S,8S,8aR)-8-(2-((2R,4R)-4-((tert-butyldimethylsilyl)oxy)-6-oxotetrahydro-2H-pyran-2-yl)ethyl)-3,7-dimethyl-1,2,3,7,8,8a-hexahydronaphthalen-1-yl (3-(4-((2-(2,6-dioxopiperidin-3-yl)-1,3-dioxoisoindolin-4-yl)amino)butoxy)propyl)carbamate], for which the DC50 lay within 50 to 500 nM.
Regarding `C[C@H]1C=C2C=C[C@H](C)[C@H](CC[C@@H]3C[C@@H](O)CC(=O)O3)[C@H]2[C@@H](OC(=O)NCCCOCCCCNc2cccc3c2C(=O)N(C2CCC(=O)NC2=O)C3=O)C1` (stereo partly drawn) [Compound 121, (1S,3R,7S,8S,8aR)-8-(2-((2R,4R)-4-hydroxy-6-oxotetrahydro-2H-pyran-2-yl)ethyl)-3,7-dimethyl-1,2,3,7,8,8a-hexahydronaphthalen-1-yl (3-(4-((2-(2,6-dioxopiperidin-3-yl)-1,3-dioxoisoindolin-4-yl)amino)butoxy)propyl)carbamate], the DC50 was less than 50 nM.
The value for `C[C@H]1C=C2C=C[C@H](C)[C@H](CC[C@@H]3C[C@@H](O[Si](C)(C)C(C)(C)C)CC(=O)O3)[C@H]2[C@@H](OC(=O)NCCCCCN2CCC(Nc3cccc4c3C(=O)N(C3CCC(=O)NC3=O)C4=O)CC2)C1` (stereo partly drawn) [Compound 124, (1S,3R,7S,8S,8aR)-8-(2-((2R,4R)-4-((tert-butyldimethylsilyl)oxy)-6-oxotetrahydro-2H-pyran-2-yl)ethyl)-3,7-dimethyl-1,2,3,7,8,8a-hexahydronaphthalen-1-yl (5-(4-((2-(2,6-dioxopiperidin-3-yl)-1,3-dioxoisoindolin-4-yl)amino)piperidin-1-yl)pentyl)carbamate] was less than 50 nM.
Consider `C[C@H]1C=C2C=C[C@H](C)[C@H](CC[C@@H]3C[C@@H](O[Si](C)(C)C(C)(C)C)CC(=O)O3)[C@H]2[C@@H](OC(=O)NCCCCCCN2CCC(Nc3cccc4c3C(=O)N(C3CCC(=O)NC3=O)C4=O)CC2)C1` (stereo partly drawn) [Compound 125, (1S,3R,7S,8S,8aR)-8-(2-((2R,4R)-4-((tert-butyldimethylsilyl)oxy)-6-oxotetrahydro-2H-pyran-2-yl)ethyl)-3,7-dimethyl-1,2,3,7,8,8a-hexahydronaphthalen-1-yl (6-(4-((2-(2,6-dioxopiperidin-3-yl)-1,3-dioxoisoindolin-4-yl)amino)piperidin-1-yl)hexyl)carbamate], for which the DC50 is 50 to 500 nM.

Usually DC50 stands for the midpoint of the concentration-degradation curve.
